Results: patent publication US10611750B2, “Tetrahydroquinoline compositions as bet bromodomain inhibitors” (FORMA Therapeutics, Inc., priority 2013, dated 2020)

Legend:
[1] = target: T1, BRD4 Bromodomain 1 (BRD4 BD1) (Homo sapiens, UniProt O60885); experiment: AlphaScreen binding assay, BRD4 BD1; conditions: His-tagged BRD4 BD1 50 nM, biotinylated H4 (1-21) K5/8/12/16 tetra-acetylated peptide 50 nM, compounds listed under IC50 range headings
T1 construct: 44-168 and BRD4 BD2
Outline: (§1)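 An AlphaScreen competition format was used with His-BRD4 BD1 or BD2 and biotin-H4 K5/8/12/16-acetyl peptide, each at matched final levels of 50 nM (BD1) or 100 nM (BD2). Incubation in HEPES/NaCl buffer with 0.1% BSA and 0.01% Triton X-100 ran ≥1 h before IC50 determination.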

[2] = tested on: acute myelocytic leukemia (AML) cell line MV4-11; experiment: Oncology cell growth assay (3-day proliferation, CellTiter-Glo); type: cell-based; conditions: Homo sapiens, MV4-11, 72 h, MV4-11 cells, 3000 cells/well, compounds listed under IC50 range headings, read-out: MV411 IC50 (gIC50, inhibition of proliferation)
Outline: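 72 h, 37° C, 5% CO2; MV4-11, 3000 cells/well, RPMI 1640 + 10% FBS. Compound final 10, 3.3, 1.1, 0.37, 0.12, 0.041, 0.013, 0.0045 μM. Readout CellTiter-Glo luminescence; gIC50 by 4-parameter logistic fit, normalised to DMSO and no-cell background.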

[3] = target: T2, BRD4 Bromodomain 2 (BRD4 BD2) (Homo sapiens, UniProt O60885); experiment: AlphaScreen binding assay, BRD4 BD2; conditions: His-tagged BRD4 BD2 100 nM, biotinylated H4 (1-21) K5/8/12/16 tetra-acetylated peptide 100 nM, compounds listed under IC50 range headings
T2 construct: 333-460 were cloned, expressed, and purified to homogeneity
Outline: as §1

SMILES | IC50 [1] [nM] | IC50 [2] [nM] | IC50 [3] [nM]
COC(=O)N1c2ccc(-c3cnn([C@H]4CCNC[C@@H]4F)c3)c(Oc3ccc(F)cc3)c2CC[C@@H]1C [I-364, methyl (2S)-5-(4-fluorophenoxy)-6-{1-[(3S,4S)-3-fluoropiperidin-4-yl]-1H-pyrazol-4-yl}-2-methyl-1,2,3,4-tetrahydroquinoline-1-carboxylate] | 100 to 1000 | < 500 | < 50
COC(=O)N1c2ccc(-c3cnn([C@@H]4CCNC[C@@H]4F)c3)c(Oc3ccc(F)cc3)c2CC[C@@H]1C [I-365, methyl (2 S)-5-(4-fluorophenoxy)-6-{1-[(3S,4R)-3-fluoropiperidin-4-yl]-1H-pyrazol-4-yl}-2-methyl-1,2,3,4-tetrahydroquinoline-1-carboxylate] | 100 to 1000 | < 500 | < 50
COC(=O)N1c2ccc(-c3cnn([C@H]4CCNC[C@H]4F)c3)c(Oc3ccc(F)cc3)c2CC[C@@H]1C [I-366, methyl (2 S)-5-(4-fluorophenoxy)-6-{1-[(3R,4S)-3-fluoropiperidin-4-yl]-1H-pyrazol-4-yl}-2-methyl-1,2,3,4-tetrahydroquinoline-1-carboxylate] | 100 to 1000 | < 500 | < 50
CC(=O)N1c2ccc(-c3cnn(C4CC4)c3)c(OCCNS(C)(=O)=O)c2CC[C@@H]1C [I-382] | 100 to 1000 | 500 to 1000 | 50 to 500
CC(=O)N1c2ccc(-c3cnn(C4CC4)c3)c(OCC3CCCC3)c2CC[C@@H]1C [I-385] | < 100 | < 500 | < 50
CCCOc1c(-c2cnn(C3CC3)c2)ccc2c1CC[C@H](C)N2C(C)=O [I-387] | 100 to 1000 | < 500 | < 50
CC(=O)N1c2ccc(-c3cnn(C4CC4)c3)c(OC(C)C)c2CC[C@@H]1C [I-388] | 100 to 1000 | 500 to 1000 | 50 to 500
CC(=O)N1c2ccc(-c3cnn(C4CC4)c3)c(OC3CCC3)c2CC[C@@H]1C [I-389] | 100 to 1000 | < 500 | < 50
CC(=O)N1c2ccc(-c3cnn(C4CC4)c3)c(OCC3CC3)c2CC[C@@H]1C [I-390] | 100 to 1000 | < 500 | < 50
CC(=O)N1c2ccc(-c3cnn(C4CC4)c3)c(OCC3CCC3)c2CC[C@@H]1C [I-392] | 100 to 1000 | < 500 | 50 to 500
CC(=O)N1c2ccc(-c3cnn(C4CC4)c3)c(OCC3(C)COC3)c2CC[C@@H]1C [I-395] | 100 to 1000 | 500 to 1000 | 50 to 500
CC(=O)N1c2ccc(-c3cnn(C4CC4)c3)c(OC3CCCC3)c2CC[C@@H]1C [I-396] | 100 to 1000 | < 500 | < 50
COCCOc1c(-c2cnn(C3CC3)c2)ccc2c1CC[C@H](C)N2C(C)=O [I-398] | 100 to 1000 | 500 to 1000 | 50 to 500
CC(=O)N1c2ccc(-c3cnn(C4CC4)c3)c(OCC3CCOCC3)c2CC[C@@H]1C [I-400] | 100 to 1000 | < 500 | 50 to 500
CC(=O)N1c2ccc(-c3cnn(C4CC4)c3)c(OCC(=O)N(C)C)c2CC[C@@H]1C [I-401] | 100 to 1000 | < 500 | < 50
CC(=O)N1c2ccc(-c3cnn(C4CC4)c3)c(OCC3CCCCC3)c2CC[C@@H]1C [I-402] | 100 to 1000 | 500 to 1000 | 50 to 500
CCCOc1c(-c2cnn(CCS(C)(=O)=O)c2)ccc2c1CC[C@H](C)N2C(C)=O [I-407] | 100 to 1000 | < 500 | < 50
CCCOc1c(-c2cnn(CC(C)(C)O)c2)ccc2c1CC[C@H](C)N2C(C)=O [I-408] | 100 to 1000 | < 500 | < 50
CC(=O)N1c2ccc(-c3cnn(CCS(C)(=O)=O)c3)c(OC3CCC3)c2CC[C@@H]1C [I-409] | 100 to 1000 | < 500 | < 50
CC(=O)N1c2ccc(-c3cnn(CC(C)(C)O)c3)c(OC3CCC3)c2CC[C@@H]1C [I-410] | 1000 to 10000 | < 500 | < 50

SMILES | IC50 [1] [nM] | IC50 [2] [nM] | IC50 [3] [nM]
CC(=O)N1c2ccc(-c3cnn(CCO)c3)c(OC3CCC3)c2CC[C@@H]1C [I-411] | 100 to 1000 | < 500 | < 50
CC(=O)N1c2ccc(-c3cnn(C4CCNCC4)c3)c(OC3CCC3)c2CC[C@@H]1C [I-412] | 100 to 1000 | < 500 | < 50
CC(=O)N1c2ccc(-c3cnn(CCS(C)(=O)=O)c3)c(OCC3CCOCC3)c2CC[C@@H]1C [I-413] | 100 to 1000 | < 500 | 50 to 500
CC(=O)N1c2ccc(-c3cnn(CCO)c3)c(OCC3CCOCC3)c2CC[C@@H]1C [I-415] | < 100 | < 500 | < 50
CC(=O)N1c2ccc(-c3cnn(C4CCNCC4)c3)c(OCC3CCOCC3)c2CC[C@@H]1C [I-416] | < 100 | < 500 | < 50
CC(=O)N1c2ccc(-c3cnn(CCS(C)(=O)=O)c3)c(OCC(C)C)c2CC[C@@H]1C [I-420] | 100 to 1000 | < 500 | < 50
CC(=O)N1c2ccc(-c3cnn(CCO)c3)c(OCC(C)C)c2CC[C@@H]1C [I-422] | 100 to 1000 | < 500 | < 50
CC(=O)N1c2ccc(-c3cnn(C4CCNCC4)c3)c(OCC(C)C)c2CC[C@@H]1C [I-423] | < 100 | < 500 | < 50
CC(=O)N1c2ccc(-c3cnn(CCS(C)(=O)=O)c3)c(OCC3CCCC3)c2CC[C@@H]1C [I-424] | 100 to 1000 | < 500 | < 50
CC(=O)N1c2ccc(-c3cnn(CC(C)(C)O)c3)c(OCC3CCCC3)c2CC[C@@H]1C [I-425] | 100 to 1000 | < 500 | 50 to 500
CC(=O)N1c2ccc(-c3cnn(CCO)c3)c(OCC3CCCC3)c2CC[C@@H]1C [I-426] | < 100 | < 500 | < 50
CC(=O)N1c2ccc(-c3cnn(C4CCNCC4)c3)c(OCC3CCCC3)c2CC[C@@H]1C [I-427] | < 100 | < 500 | < 50
CC(=O)N1c2ccc(-c3cnn(C4CCNCC4)c3)c(OCC(=O)N3CCCC3)c2CC[C@@H]1C [I-431] | 100 to 1000 | 500 to 1000 | 50 to 500
CCCOc1c(-c2cnn(CC(C)(C)O)c2)ccc2c1CC[C@H](C)N2C(=O)OC [I-442] | 1000 to 10000 | < 500 | < 50
CCCOc1c(-c2cnn(CCO)c2)ccc2c1CC[C@H](C)N2C(=O)OC [I-443] | 1000 to 10000 | < 500 | < 50
COC(=O)N1c2ccc(-c3cnn(CCS(C)(=O)=O)c3)c(OC3CCC3)c2CC[C@@H]1C [I-444] | 100 to 1000 | < 500 | < 50
COC(=O)N1c2ccc(-c3cnn(CC(C)(C)O)c3)c(OC3CCC3)c2CC[C@@H]1C [I-445] | 1000 to 10000 | < 500 | < 50
COC(=O)N1c2ccc(-c3cnn(CCO)c3)c(OC3CCC3)c2CC[C@@H]1C [I-446] | 100 to 1000 | < 500 | 50 to 500
COC(=O)N1c2ccc(-c3cnn(C4CCNCC4)c3)c(OC3CCC3)c2CC[C@@H]1C [I-447] | < 100 | < 500 | < 50
